In US8063208B2, “Crystalline forms of (3R,4R)-4-amino-1-[[4-[(3-methoxyphenyl)amino]pyrrolo[2,1-f][1,2,4]triazin-5-yl]methyl]piperidin-3-ol” (Bristol-Myers Squibb Company, priority 2006, dated 2011):
Each block holds one compound with its values, some of them ahead of it.

Legend:
[1] = test system: HER2 and HER1 driven tumor xenograft models; assay: Anti-tumor efficacy in tumor xenograft models; assay type: in vivo
HER4 = HER4 (Homo sapiens, UniProt Q15303); assay: HER4 tyrosine kinase inhibition; assay type: biochemical
HER2 = HER2 (Homo sapiens, UniProt P04626); assay: HER2 tyrosine kinase inhibition; assay type: biochemical
HER1 = HER1 (Homo sapiens, UniProt P00533); assay: HER1 tyrosine kinase inhibition; assay type: biochemical
various tumor cell lines = assay: Antiproliferative activity in tumor cell lines; assay type: cell-based
VEGFR2 = VEGFR2 (Homo sapiens, UniProt P35968); assay: VEGFR2 inhibition; assay type: biochemical
[2] = Form conversion on heating (melt/recrystallization); assay type: physicochemical; details: melts at about 137° C.
Method: Differential scanning calorimetry (DSC) experiments were performed in a TA Instruments™ model Q1000 or 2920. The sample (about 2-6 mg) was weighed in an aluminum pan and recorded accurately recorded to a hundredth of a milligram, and transferred to the DSC. The instrument was purged with nitrogen gas at 50 mL/min. Data were collected between room temperature and 300° C. at 10° C./min heating rate. The plot was made with the endothermic peaks pointing down.

[3] = Slurry conversion of mixtures of forms; assay type: physicochemical; details: slurried mixtures of N-1 and N-2 convert to Form N-2
[4] = Relative thermodynamic stability of crystalline forms; assay type: physicochemical; details: temperatures from room temperature to 50° C.

Sequence of VEGFR2 (P35968 20-1356, species assumed): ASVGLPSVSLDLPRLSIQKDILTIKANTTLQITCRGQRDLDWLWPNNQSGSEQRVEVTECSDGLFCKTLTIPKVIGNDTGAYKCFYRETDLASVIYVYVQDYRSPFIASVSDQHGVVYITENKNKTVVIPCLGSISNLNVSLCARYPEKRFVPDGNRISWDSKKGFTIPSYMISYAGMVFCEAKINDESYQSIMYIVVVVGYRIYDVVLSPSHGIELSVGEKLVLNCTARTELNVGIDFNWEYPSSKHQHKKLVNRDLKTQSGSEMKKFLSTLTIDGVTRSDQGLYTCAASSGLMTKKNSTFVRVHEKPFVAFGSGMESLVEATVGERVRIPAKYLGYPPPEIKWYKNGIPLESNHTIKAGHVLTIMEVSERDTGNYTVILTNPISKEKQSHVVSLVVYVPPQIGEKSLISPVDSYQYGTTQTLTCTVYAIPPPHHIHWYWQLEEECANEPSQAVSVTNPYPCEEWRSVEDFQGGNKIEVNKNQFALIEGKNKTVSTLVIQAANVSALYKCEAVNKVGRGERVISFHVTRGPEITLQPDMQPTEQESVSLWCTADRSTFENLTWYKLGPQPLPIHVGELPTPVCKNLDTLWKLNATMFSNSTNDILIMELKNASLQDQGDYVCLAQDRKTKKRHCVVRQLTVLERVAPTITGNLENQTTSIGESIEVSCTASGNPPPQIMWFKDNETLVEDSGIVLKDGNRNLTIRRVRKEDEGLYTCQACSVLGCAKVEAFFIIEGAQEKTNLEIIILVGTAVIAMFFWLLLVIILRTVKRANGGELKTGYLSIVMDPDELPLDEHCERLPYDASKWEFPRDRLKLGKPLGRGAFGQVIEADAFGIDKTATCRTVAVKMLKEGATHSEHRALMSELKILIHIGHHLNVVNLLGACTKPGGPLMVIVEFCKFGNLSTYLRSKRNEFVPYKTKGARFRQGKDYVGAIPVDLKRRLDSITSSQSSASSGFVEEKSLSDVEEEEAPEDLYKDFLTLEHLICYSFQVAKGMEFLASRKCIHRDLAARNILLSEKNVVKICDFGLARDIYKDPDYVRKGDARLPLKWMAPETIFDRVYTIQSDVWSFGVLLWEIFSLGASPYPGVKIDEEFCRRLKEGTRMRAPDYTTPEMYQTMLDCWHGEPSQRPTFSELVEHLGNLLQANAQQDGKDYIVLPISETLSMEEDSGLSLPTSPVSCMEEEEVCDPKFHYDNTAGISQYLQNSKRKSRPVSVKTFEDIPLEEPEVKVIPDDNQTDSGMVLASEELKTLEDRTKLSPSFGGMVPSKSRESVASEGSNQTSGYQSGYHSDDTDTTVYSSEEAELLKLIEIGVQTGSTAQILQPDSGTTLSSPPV
Sequence of HER2 (P04626 23-1255): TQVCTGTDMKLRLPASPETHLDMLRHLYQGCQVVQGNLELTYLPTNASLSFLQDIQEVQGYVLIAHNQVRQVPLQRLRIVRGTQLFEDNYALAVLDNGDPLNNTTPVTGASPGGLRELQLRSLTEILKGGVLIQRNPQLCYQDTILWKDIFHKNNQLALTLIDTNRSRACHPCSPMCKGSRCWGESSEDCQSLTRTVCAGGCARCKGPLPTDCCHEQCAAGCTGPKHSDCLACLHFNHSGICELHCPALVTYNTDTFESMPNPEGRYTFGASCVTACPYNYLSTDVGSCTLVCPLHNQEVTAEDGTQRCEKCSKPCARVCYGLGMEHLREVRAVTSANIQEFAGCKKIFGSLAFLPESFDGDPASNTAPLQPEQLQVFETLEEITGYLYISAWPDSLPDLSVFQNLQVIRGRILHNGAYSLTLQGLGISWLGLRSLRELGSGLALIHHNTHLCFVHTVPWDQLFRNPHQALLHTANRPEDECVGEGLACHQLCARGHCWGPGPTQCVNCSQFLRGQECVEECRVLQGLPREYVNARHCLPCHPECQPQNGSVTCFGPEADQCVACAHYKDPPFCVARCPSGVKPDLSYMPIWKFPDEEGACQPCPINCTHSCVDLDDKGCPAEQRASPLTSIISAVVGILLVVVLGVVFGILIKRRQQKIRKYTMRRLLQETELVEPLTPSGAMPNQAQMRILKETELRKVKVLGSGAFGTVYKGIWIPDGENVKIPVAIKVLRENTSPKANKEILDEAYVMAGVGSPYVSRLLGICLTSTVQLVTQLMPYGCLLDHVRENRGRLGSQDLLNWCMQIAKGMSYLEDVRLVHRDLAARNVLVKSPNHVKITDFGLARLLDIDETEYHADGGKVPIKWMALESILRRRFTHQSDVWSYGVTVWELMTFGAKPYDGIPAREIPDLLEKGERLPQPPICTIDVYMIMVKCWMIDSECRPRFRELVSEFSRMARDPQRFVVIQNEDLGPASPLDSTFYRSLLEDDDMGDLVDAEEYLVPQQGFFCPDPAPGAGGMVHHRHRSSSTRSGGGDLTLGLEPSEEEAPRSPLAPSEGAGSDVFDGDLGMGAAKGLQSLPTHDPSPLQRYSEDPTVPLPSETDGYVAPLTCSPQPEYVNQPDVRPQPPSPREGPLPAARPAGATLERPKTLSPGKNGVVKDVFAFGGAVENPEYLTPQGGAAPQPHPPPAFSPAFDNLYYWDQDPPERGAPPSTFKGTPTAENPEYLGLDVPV
Sequence of HER1 (P00533 25-1210): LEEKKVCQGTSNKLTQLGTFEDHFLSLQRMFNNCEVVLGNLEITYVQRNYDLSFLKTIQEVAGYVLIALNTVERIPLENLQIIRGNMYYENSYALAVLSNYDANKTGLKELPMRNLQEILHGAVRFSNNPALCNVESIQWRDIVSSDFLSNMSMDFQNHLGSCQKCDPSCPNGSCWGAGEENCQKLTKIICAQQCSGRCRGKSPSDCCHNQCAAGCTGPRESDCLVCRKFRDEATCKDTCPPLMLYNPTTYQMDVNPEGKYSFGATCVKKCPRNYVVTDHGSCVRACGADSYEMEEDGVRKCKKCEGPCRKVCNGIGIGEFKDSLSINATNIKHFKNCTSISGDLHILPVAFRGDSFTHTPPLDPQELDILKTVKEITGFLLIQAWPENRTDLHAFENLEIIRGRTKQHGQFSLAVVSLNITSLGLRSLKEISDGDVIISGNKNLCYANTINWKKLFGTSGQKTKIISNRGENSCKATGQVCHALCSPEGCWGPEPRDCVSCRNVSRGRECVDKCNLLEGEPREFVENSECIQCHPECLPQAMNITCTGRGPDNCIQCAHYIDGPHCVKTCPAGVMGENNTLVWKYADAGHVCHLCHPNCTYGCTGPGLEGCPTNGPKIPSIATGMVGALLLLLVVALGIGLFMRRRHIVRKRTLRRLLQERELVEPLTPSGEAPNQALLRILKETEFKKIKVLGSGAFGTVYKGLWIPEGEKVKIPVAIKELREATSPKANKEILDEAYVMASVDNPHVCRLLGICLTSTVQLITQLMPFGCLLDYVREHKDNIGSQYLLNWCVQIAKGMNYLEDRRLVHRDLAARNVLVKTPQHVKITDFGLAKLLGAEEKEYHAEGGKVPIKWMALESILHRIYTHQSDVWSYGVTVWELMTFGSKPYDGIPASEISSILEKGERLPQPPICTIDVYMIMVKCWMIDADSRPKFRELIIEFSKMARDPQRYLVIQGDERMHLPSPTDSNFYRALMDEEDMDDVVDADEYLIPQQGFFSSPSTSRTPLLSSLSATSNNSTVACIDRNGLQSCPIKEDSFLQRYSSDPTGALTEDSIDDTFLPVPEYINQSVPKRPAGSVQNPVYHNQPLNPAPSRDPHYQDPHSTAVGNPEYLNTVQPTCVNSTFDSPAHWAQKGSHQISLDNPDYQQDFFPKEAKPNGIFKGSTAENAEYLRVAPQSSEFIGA
Sequence of HER4 (Q15303 26-1308): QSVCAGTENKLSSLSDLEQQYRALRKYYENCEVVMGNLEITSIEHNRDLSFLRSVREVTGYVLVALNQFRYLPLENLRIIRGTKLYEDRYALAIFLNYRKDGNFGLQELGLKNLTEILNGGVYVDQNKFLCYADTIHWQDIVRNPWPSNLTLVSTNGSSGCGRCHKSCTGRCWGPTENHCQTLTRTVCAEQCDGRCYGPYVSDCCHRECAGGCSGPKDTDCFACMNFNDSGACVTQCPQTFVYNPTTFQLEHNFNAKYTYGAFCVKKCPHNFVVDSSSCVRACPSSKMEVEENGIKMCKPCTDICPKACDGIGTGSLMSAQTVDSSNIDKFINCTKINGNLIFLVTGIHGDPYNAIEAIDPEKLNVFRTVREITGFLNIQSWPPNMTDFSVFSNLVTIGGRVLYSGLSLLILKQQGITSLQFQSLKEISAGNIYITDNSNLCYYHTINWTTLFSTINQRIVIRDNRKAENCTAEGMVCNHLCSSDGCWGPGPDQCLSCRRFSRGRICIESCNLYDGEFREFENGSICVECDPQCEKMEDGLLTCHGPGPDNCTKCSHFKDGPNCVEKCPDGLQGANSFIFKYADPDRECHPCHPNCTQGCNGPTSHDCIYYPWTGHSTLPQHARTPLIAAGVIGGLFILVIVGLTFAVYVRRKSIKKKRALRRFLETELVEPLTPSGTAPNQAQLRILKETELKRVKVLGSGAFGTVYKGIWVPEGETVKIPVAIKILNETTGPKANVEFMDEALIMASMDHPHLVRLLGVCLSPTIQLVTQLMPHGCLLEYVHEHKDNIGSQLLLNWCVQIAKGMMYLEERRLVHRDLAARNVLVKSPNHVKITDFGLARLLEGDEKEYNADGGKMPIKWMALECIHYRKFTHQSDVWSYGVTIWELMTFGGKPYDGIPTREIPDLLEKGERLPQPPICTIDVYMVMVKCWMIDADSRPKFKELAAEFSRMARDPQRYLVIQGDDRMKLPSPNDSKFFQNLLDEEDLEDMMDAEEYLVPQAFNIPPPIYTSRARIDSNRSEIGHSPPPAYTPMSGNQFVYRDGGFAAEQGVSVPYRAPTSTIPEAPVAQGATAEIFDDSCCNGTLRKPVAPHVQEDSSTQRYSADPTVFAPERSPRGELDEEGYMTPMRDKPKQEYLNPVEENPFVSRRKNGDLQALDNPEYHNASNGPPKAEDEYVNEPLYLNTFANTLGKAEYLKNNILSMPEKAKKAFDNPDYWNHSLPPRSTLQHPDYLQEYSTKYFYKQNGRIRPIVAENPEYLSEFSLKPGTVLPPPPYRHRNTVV

- inhibition of HER4 (HER4): potent inhibitor
- inhibition of HER2 (HER2): potent inhibitor
- inhibition of HER1 (HER1): potent inhibitor
- inhibition of VEGFR2 (VEGFR2): potent inhibitor
Structure (SMILES): COc1cccc(Nc2ncnn3ccc(CN4CC[C@@H](N)[C@H](O)C4)c23)c1 [Compound I, (3R,4R)-4-amino-1-[[4-[(3-methoxyphenyl)amino]pyrrolo[2,1-f][1,2,4]triazin-5-yl]methyl]piperidin-3-ol]
- anti-tumor efficacy [1]: excellent anti-tumor efficacy
- antiproliferative activity (various tumor cell lines): broad antiproliferative activity

- solid form conversion after melting [2]: recrystallizes as Form N-2
Structure (SMILES): COc1cccc(Nc2ncnn3ccc(CN4CC[C@@H](N)[C@H](O)C4)c23)c1 [Form N-1, (3R,4R)-4-amino-1-[[4-[(3-methoxyphenyl)amino]pyrrolo[2,1-f][1,2,4]triazin-5-yl]methyl]piperidin-3-ol]

- stability relationship from slurried mixtures of N-1 and N-2 [3]: monotropically more stable
Structure (SMILES): COc1cccc(Nc2ncnn3ccc(CN4CC[C@@H](N)[C@H](O)C4)c23)c1 [Form N-2, (3R,4R)-4-amino-1-[[4-[(3-methoxyphenyl)amino]pyrrolo[2,1-f][1,2,4]triazin-5-yl]methyl]piperidin-3-ol]
- thermodynamic stability relative to other form [4]: more thermodynamically stable than Form N-1
